Assay results reported in patent US9131688B2, “Strigolactam derivatives as plant growth regulating compounds” (Syngenta Participations AG, priority 2011, dated 2015).

Key:
Assay type in all cases: in vivo
[1] = test system: Orobanche cumana Wallr. seeds (race 'F'); assay: Germination of preconditioned Orobanche cumana seeds on glass fiber filter paper in petri dishes; conditions: for Germination (%): mean, N = 5 x 100 seeds; for Germination inducing effect on Orobanche cumana seeds (summary in words): summary of Tables 3 to 6
Protocol: The effect of compounds of Formula (I) on germination of Orobanche cumana Wallr. seeds was evaluated on glass fiber filter paper (GFFP) in petri dishes. Seeds were preconditioned at moisture and suitable temperature to become responsive to the specific chemical germination stimulants.
Test compounds were dissolved in DMSO (10 000 mg 1^−1) and stored at room temperature in a desiccators with desiccants. The stock solutions were dissolved with deionised water to the appropriate final test concentration.
Seeds of O. cumana race ‘F’ were collected from a sunflower field in Manzanilla (Seville, Spain) in 2006 (IN146) and 2008 (IN153), respectively and stored at room temperature. To separate seeds from heavy organic debris, a modified sucrose floatation technique as described by Hartman & Tanimonure (Plant Disease (1991), 75, p. 494) was applied. Seeds were filled into a separation funnel and stirred in water. When seeds floated to the surface, the water fraction containing heavy debris was discarded. Seeds were re-suspended in 2.5M sucrose solution (specific gravity of 1.20) and heavy debris was allowed to settle down for 60 min. After removing debris, seeds were disinfected in 1% sodium hypochlorite solution and 0.025% (v/v) Tween 20 for 2 min. The seeds were decanted onto two layers of cheesecloth, rinsed with sterile deionised water and re-suspended in sterile deionised water. Two ml of the seed suspension containing approximately 150-400 seeds were spread evenly on two layers of sterile glass fiber filter paper disc ([…]) in Petri dishes (Ø9 cm). After wetting the discs with 3 ml sterile deionised water, petri dishes were sealed with parafilm. Seeds were incubated for 10 days at 20° C. in the dark for seed conditioning. The upper disc with conditioned seeds was briefly dried, transferred to a petri dish lined with a dry GFFP disc, and wetted with 6 ml of the appropriate test solution. The compounds of formula (I) were tested at concentrations of 0.001, 0.01, and 0.1 mg 1^−1. The strigolactone analogue GR24 was included as positive control and 0.001% DMSO as negative control. All treatments were tested in five replicates. Seeds were re-incubated at 20° C. in the dark and examined for germination 10 days later. The radicles of germinated seeds were stained for 5 min with blue ink (MIGROS, Switzerland) in 5% acetic acid according to Long et al. Seed Science Research (2008), 18, p. 125). After staining, seeds were photographed using a camera stand mounted with a digital SLR camera (Canon EOS 5D). Germination of 100 seeds per replicate was evaluated on digital images. Seeds were considered germinated when the radicle protruded from the seed coat.

[2] = test system: Brassica oleracea cv Botrytis (common cauliflower) seeds; assay: Standard paper germination test for Brassica (cauliflower seeds, suboptimal conditions); conditions: 25 μM, 20° C., dark; for stimulation (extra germination compared to the DMSO treatment, expressed as percentage of the DMSO treatment): tropical cauliflower 3C150, seed batch 11B295; for acceleration (hours faster than the DMSO treatment to reach 50% of total germination) / t50 (time needed to reach 50% of total germination): tropical cauliflower 3C150, seed batch 11B552
Protocol: The effect of compounds of Formula (I) on the germination of Brassica oleracea cv Botrytis or common cauliflower was tested on two types of cauliflowers: temperate types and tropical types. These two types were chosen because they display different sensitivities to the light conditions and temperature during germination. Germination of a sensitive temperate type is inhibited by light at 10° C. while for the tropical types germination at 20° is stimulated by the presence of light.
The temperate seed batches tested are part of commercially produced seed batches of various varieties which are known to be sensitive to light at 10° C. These seeds were harvested and cleaned according standard commercial procedures. Ready seed batches were used (Ready indicates the processing level of these seeds: they have been cleaned and sized but received no other treatments). The tropical seed batches tested are part of seed batches produced as basic seed (for maintenance of the parental line) and were processed accordingly.
Germination was assessed using the standard paper germination test for Brassica: Fifty seeds were placed on blue germination paper, which was moistened with the appropriate solutions, in closed oblong germination boxes. Each condition was tested in duplo. Germination boxes were placed in controlled germination cabinets with the appropriate temperature and light conditions. Germination of seeds was counted at regular intervals. Seeds were considered to be germinated when the radical had protruded the testa and endosperm (radical size approximately 1 mm). Germination kinetics were analyzed using the Germinator analysis tool in order to obtain the parameters: Gmax (maximum germination) and t50 (time needed to reach 50% of the Gmax). The Germinator analysis tool is an add-in in for excel developed by the University of Wageningen: Joosen, R. V. L., J. Kodde, et al. (2010). (“Germinator: A Software Package for High-Throughput Scoring and Curve Fitting of Arabidopsis Seed Germination.” The Plant Journal 62(1): 148-159.)
Test compounds were dissolved in DMSO at a concentration of 50 mM and stored at −20° C. The strigolactone analogue GR24 (commercially available as a racemic mixture of 2 diastereoisomers, referred to as “synthetic strigolactone GR-24” and first prepared by Johnson A. W. & all, Journal of the Chemical Society, Perkin Transactions 1, 1981, page 1734-1743) was included as positive control. Germination solutions were prepared by diluting the stock solutions with demineralized water till 25 μM. As control solutions demineralized water and a 0.05% v/v DMSO solution were used.

[3] = test system: Orobanche cumana Wallr. seeds (race 'F'); assay: Germination of preconditioned Orobanche cumana seeds on glass fiber filter paper in petri dishes; conditions: Table 5; 1.0 mg l^-1; seed lot IN153; mean, N = 5 x 100 seeds
[4] = Table 6, 0.001 mg l^-1, seed lot IN153
[5] = Table 6, 0.01 mg l^-1, seed lot IN153
[6] = Table 6, 0.1 mg l^-1, seed lot IN153
[7] = Table 3, 0.001 mg l^-1, seed lot IN146, 10 days at 20° C. in the dark
[8] = Table 3, 0.01 mg l^-1, seed lot IN146
[9] = Table 3, 0.1 mg l^-1, seed lot IN146
[10] = Table 4, 0.001 mg l^-1, seed lot IN153
[11] = Table 4, 0.01 mg l^-1, seed lot IN153
[12] = Table 4, 0.1 mg l^-1, seed lot IN153
[13] = Table 5, 0.01 mg l^-1, seed lot IN153
[14] = Table 5, 0.1 mg l^-1, seed lot IN153
[15] = Table 7, tropical cauliflower 3C150, seed batch 11B295 (Chili 2011)
[16] = Table 8, tropical cauliflower 3C150, seed batch 11B552 (South Africa 2010)

Structure (SMILES): CC1=CC(O/C=C2/C(=O)N[C@@H]3C4=CCC[C@H]4C[C@H]23)OC1=O (some centres unmarked) [Compound P4, 3E 3-[[4-methyl-5-oxo-2H-furan-2-yl]oxymethylene]-1,3a,4,4a,5,6,7b-hexahydropentaleno[1,2-b]pyrrol-2-one]
- Germination (%) [1, 4]: 73.4%
- Germination (%) [1, 5]: 82.6%
- Germination (%) [1, 6]: 68.4%
- Germination inducing effect on Orobanche cumana seeds (summary in words) [1]: germination inducing effect

Structure (SMILES): CC1=C[C@H](O/C=C2/C(=O)O[C@@H]3c4ccccc4C[C@H]23)OC1=O [GR24, reference compound]
- Germination (%) [1, 7]: 20.4%
- Germination (%) [1, 8]: 61.0%
- Germination (%) [1, 9]: 86.2%
- Germination (%) [1, 10]: 67%
- Germination (%) [1, 11]: 65%
- Germination (%) [1, 12]: 78.4%
- Germination (%) ([1]; Table 5, 0.001 mg l^-1, seed lot IN153): 88%
- Germination (%) [1, 13]: 86.6%
- Germination (%) [1, 14]: 95.2%
- Germination (%) [1, 4]: 26%
- Germination (%) [1, 5]: 51%
- Germination (%) [1, 6]: 84.2%
- Gmax (total germination) [2, 15]: 73.0%
- stimulation (extra germination compared to the DMSO treatment, expressed as percentage of the DMSO treatment) ([2]; Table 7): 140.0%
- Gmax (total germination) [2, 16]: 100.0%
- acceleration (hours faster than the DMSO treatment to reach 50% of total germination) ([2]; Table 8): 8.7 h
- t50 (time needed to reach 50% of total germination) ([2]; Table 8): 72.2 h

Structure (SMILES): CC1=C[C@H](O/C=C2/C(=O)N[C@@H]3C4=CCCC[C@H]4C[C@H]23)OC1=O [Compound P2, (3E,3aR,4aS,8bS)-3-[[(2R)-4-methyl-5-oxo-2H-furan-2-yl]oxymethylene]-1,3a,4,4a,5,6,7,8b-octahydroindeno[1,2-b]pyrrol-2-one]
- Germination (%) [1, 10]: 92.6%
- Germination (%) [1, 11]: 91.0%
- Germination (%) [1, 12]: 91.0%
- Germination inducing effect on Orobanche cumana seeds (summary in words) [1]: germination inducing effect

Structure (SMILES): CC1=C[C@H](O/C=C2/C(=O)N(C(=O)OC(C)(C)C)[C@@H]3C4=CCC[C@H]4C[C@H]23)OC1=O [Compound P5, Tert-butyl (3E,3aR,4aS,7bS)-3-[[4-methyl-5-oxo-2H-furan-2-yl]oxymethylene]-2-oxo-3a,4,4a,5,6,7b-hexahydropentaleno[1,2-b]pyrrole-1-carboxylate]
- Germination (%) [1, 4]: 90.6%
- Germination (%) [1, 5]: 80.8%
- Germination (%) [1, 6]: 89.6%

Structure (SMILES): CC1=C[C@@H](O/C=C2/C(=O)N[C@@H]3C4=CCCC[C@H]4C[C@H]23)OC1=O [Compound B2, (3E,3aR,4aS,8bS)-3-[[(2S)-4-methyl-5-oxo-2H-furan-2-yl]oxymethylene]-1,3a,4,4a,5,6,7,8b-octahydroindeno[1,2-b]pyrrol-2-one]
- Germination (%) [1, 13]: 80.4%
- Germination (%) [1, 14]: 89.2%
- Germination inducing effect on Orobanche cumana seeds (summary in words) [1]: germination inducing effect
- Germination (%) [3]: 91.8%

Structure (SMILES): CC1=CC(O/C=C2/C(=O)N[C@@H]3C4=C(CCCC4(C)C)C[C@H]23)OC1=O (stereo partly drawn) [Compound P1, (3E,3aR,8bS)-8,8-dimethyl-3-[(4-methyl-5-oxo-2H-furan-2-yl)oxymethylene]-3a,4,5,6,7,8b-hexahydro-1H-indeno[1,2-b]pyrrol-2-one]
- Germination (%) [1, 7]: 88%
- Germination (%) [1, 8]: 88%
- Germination (%) [1, 9]: 88.4%
- Germination inducing effect on Orobanche cumana seeds (summary in words) [1]: germination inducing effect
- Gmax (total germination) [2, 15]: 55.0%
- stimulation (extra germination compared to the DMSO treatment, expressed as percentage of the DMSO treatment) ([2]; Table 7): 80.0%
- Gmax (total germination) [2, 16]: 95.0%
- acceleration (hours faster than the DMSO treatment to reach 50% of total germination) ([2]; Table 8): 6.6 h
- t50 (time needed to reach 50% of total germination) ([2]; Table 8): 74.3 h
